# Source: paper PMC9231348, “Bio-Oriented Synthesis of Novel (S)-Flurbiprofen Clubbed Hydrazone Schiff’s Bases for Diabetic Management: In Vitro and In Silico Studies” (Pharmaceuticals, 2022)
# Target: α-Glucosidase (E.C.3.2.1.20) (Saccharomyces cerevisiae, UniProt P53341)
# Experiment: In vitro α-glucosidase inhibition assay
# Format: biochemical
# Experimental: α-Glucosidase (E.C.3.2.1.20) enzyme inhibition assay was developed by using 0.1 M phosphate buffer (pH 6.8) at 37 °C [39, 40, 41]. The enzyme (0.2 μ/mL) was incubated in phosphate-buffered saline with different concentrations of tested compounds at 37 °C for 15 min. […] Test compounds were substituted with DMSO-d6 (7.5% final) in the control. […] The % inhibition was calculated by using the following formula:
# % Inhibition = 100 − (OD test well/OD control) × 100.
# Chain of α-Glucosidase (E.C.3.2.1.20) (P53341 whole entry): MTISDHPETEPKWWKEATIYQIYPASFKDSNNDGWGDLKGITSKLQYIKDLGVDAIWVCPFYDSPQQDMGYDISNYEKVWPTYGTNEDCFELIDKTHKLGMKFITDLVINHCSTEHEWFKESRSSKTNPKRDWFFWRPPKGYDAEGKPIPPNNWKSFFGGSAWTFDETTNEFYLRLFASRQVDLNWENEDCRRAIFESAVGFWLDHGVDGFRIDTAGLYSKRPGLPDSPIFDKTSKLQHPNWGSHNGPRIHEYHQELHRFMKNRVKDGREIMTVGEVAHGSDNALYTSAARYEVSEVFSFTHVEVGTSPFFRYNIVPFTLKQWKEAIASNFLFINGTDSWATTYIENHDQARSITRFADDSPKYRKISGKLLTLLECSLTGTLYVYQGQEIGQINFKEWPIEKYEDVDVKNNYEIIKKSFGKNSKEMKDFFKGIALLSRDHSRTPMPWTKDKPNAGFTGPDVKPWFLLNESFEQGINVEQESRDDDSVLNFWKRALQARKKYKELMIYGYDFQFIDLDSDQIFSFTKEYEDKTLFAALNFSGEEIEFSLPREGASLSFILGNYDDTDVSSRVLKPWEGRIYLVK
row,Compound,α-glucosidase inhibitory activity (in words)
1,"COc1ccc(/C=N/NC(=O)C(C)c2ccc(-c3ccccc3)c(F)c2)cc1O (centres unmarked) [Compound 4f, (E)-2-(2-Fluoro-[1, 1′-biphenyl]-4-yl)-N′-(3-hydroxy-4-methoxybenzylidene)propanehydrazide]",moderate-to-low activities
2,"CCC/C=N/NC(=O)C(C)c1ccc(-c2ccccc2)c(F)c1 (centres unmarked) [Compound 4k, (E)-N′-Butylidene-2-(2-fluoro-[1,1′-biphenyl]-4-yl)propanehydrazide]",moderate-to-low activities
3,"CC(C(=O)N/N=C/c1cccc2ccccc12)c1ccc(-c2ccccc2)c(F)c1 (centres unmarked) [Compound 4n, (E)-2-(2-Fluoro-[1,1′-biphenyl]-4-yl)-N′-(naphthalen-1-ylmethylene)propanehydrazide]",moderate-to-low activities

# Now from value to compound:
row,α-glucosidase inhibitory activity (in words),Compound
1,moderate-to-low activities,"C/C(=N\NC(=O)C(C)c1ccc(-c2ccccc2)c(F)c1)c1ccccc1 (centres unmarked) [Compound 5f, (E)-2-(2-Fluoro-[1,1′-biphenyl]-4-yl)-N′-(1-phenylethylidene)propanehydrazide]"
2,moderate-to-low activities,"CC/C(=N\NC(=O)C(C)c1ccc(-c2ccccc2)c(F)c1)c1ccccc1 (centres unmarked) [Compound 5g, (E)-2-(2-Fluoro-[1,1′-biphenyl]-4-yl)-N′-(1-phenylpropylidene)propanehydrazide]"

# Tested on: not given
# Experiment: not given
row,Compound,melting point
1,"COc1cc(/C=N/NC(=O)C(C)c2ccc(-c3ccccc3)c(F)c2)cc(OC)c1OC (centres unmarked) [Compound 4a, (E)-2-(2-Fluoro-[1,1′-biphenyl]-4-yl)-N′-(3,4,5-trimethoxybenzylidene)propanehydrazide]",139 to 140 °C
2,"CC(C(=O)N/N=C/c1cccc([N+](=O)[O-])c1)c1ccc(-c2ccccc2)c(F)c1 (centres unmarked) [Compound 4b, (E)-2-(2-Fluoro-[1,1′-biphenyl]-4-yl)-N′-(3-nitrobenzylidene)propanehydrazide]",145 to 147 °C
3,"CC(C(=O)N/N=C/c1ccc(O)cc1O)c1ccc(-c2ccccc2)c(F)c1 (centres unmarked) [Compound 4c, (E)-N′-(2,4-Dihydroxybenzylidene)-2-(2-fluoro-[1,1′-biphenyl]-4-yl)propanehydrazide]",133 to 135 °C
4,"COc1cccc(/C=N/NC(=O)C(C)c2ccc(-c3ccccc3)c(F)c2)c1O (centres unmarked) [Compound 4d, (E)-2-(2-Fluoro-[1,1′-biphenyl]-4-yl)-N′-(2-hydroxy-3-methoxybenzylidene)propanehydrazide]",154 to 155 °C
5,"CCN(CC)c1ccc(/C=N/NC(=O)C(C)c2ccc(-c3ccccc3)c(F)c2)cc1 (centres unmarked) [Compound 4e, (E)-N′-(4-(Diethylamino)benzylidene)-2-(2-fluoro-[1,1′-biphenyl]-4-yl)propanehydrazide]",144 to 145 °C
6,"COc1ccc(/C=N/NC(=O)C(C)c2ccc(-c3ccccc3)c(F)c2)cc1O (centres unmarked) [Compound 4f, (E)-2-(2-Fluoro-[1, 1′-biphenyl]-4-yl)-N′-(3-hydroxy-4-methoxybenzylidene)propanehydrazide]",126 to 127 °C
7,"CC(C(=O)N/N=C/c1ccc(Br)cc1F)c1ccc(-c2ccccc2)c(F)c1 (centres unmarked) [Compound 4g, (E)-N′-(4-Bromo-2-fluorobenzylidene)-2-(2-fluoro-[1,1′-biphenyl]-4-yl)propanehydrazide]",166 to 168 °C
8,"CC(C(=O)N/N=C/c1cccc(Br)c1)c1ccc(-c2ccccc2)c(F)c1 (centres unmarked) [Compound 4h, (E)-N′-(3-Bromobenzylidene)-2-(2-fluoro-[1,1′-biphenyl]-4-yl)propanehydrazide]",147 to 148 °C
9,"CC(C(=O)NN=Cc1cc(Br)c(O)c(Br)c1)c1ccc(-c2ccccc2)c(F)c1 (centres unmarked) [Compound 4i, (E)-N′-(3,5-Dibromo-4-hydroxybenzylidene)-2-(2-fluoro-[1,1′-biphenyl]-4-yl)propane hydrazide]",161 to 162 °C
10,"CCOc1cc(/C=N/NC(=O)C(C)c2ccc(-c3ccccc3)c(F)c2)ccc1O (centres unmarked) [Compound 4j, (E)-N′-(3-Ethoxy-4-hydroxybenzylidene)-2-(2-fluoro-[1,1′-biphenyl]-4-yl)propanehydrazide]",173 to 174 °C
11,"CCC/C=N/NC(=O)C(C)c1ccc(-c2ccccc2)c(F)c1 (centres unmarked) [Compound 4k, (E)-N′-Butylidene-2-(2-fluoro-[1,1′-biphenyl]-4-yl)propanehydrazide]",168 to 169 °C
12,"CCCCC/C=N/NC(=O)C(C)c1ccc(-c2ccccc2)c(F)c1 (centres unmarked) [Compound 4l, (E)-2-(2-Fluoro-[1, 1′-biphenyl]-4-yl)-N′-hexylidenepropanehydrazide]",129 to 130 °C
13,"COc1ccccc1/C=N/NC(=O)C(C)c1ccc(-c2ccccc2)c(F)c1 (centres unmarked) [Compound 4m, (E)-2-(2-Fluoro-[1,1′-biphenyl]-4-yl)-N′-(2-methoxybenzylidene)propanehydrazide]",131 to 132 °C
14,"CC(C(=O)N/N=C/c1cccc2ccccc12)c1ccc(-c2ccccc2)c(F)c1 (centres unmarked) [Compound 4n, (E)-2-(2-Fluoro-[1,1′-biphenyl]-4-yl)-N′-(naphthalen-1-ylmethylene)propanehydrazide]",168 to 170 °C
15,"CC(C(=O)N/N=C/c1ccc(C(=O)O)cc1)c1ccc(-c2ccccc2)c(F)c1 (centres unmarked) [Compound 4p, (E)-4-((2-(2-(2-Fluoro-[1,1′-biphenyl]-4-yl)propanoyl)hydrazono)methyl)benzoic acid]",176 to 177 °C

# Second part, the compound after the results:
row,melting point,Compound
1,152 °C,"C/C(=N\NC(=O)C(C)c1ccc(-c2ccccc2)c(F)c1)c1ccc(O)cc1 (centres unmarked) [Compound 5a, (E)-2-(2-Fluoro-[1,1′-biphenyl]-4-yl)-N′-(1-(4-hydroxyphenyl)ethylidene)propanehydrazide]"
2,175 °C,"C/C(=N\NC(=O)C(C)c1ccc(-c2ccccc2)c(F)c1)c1ccc([N+](=O)[O-])cc1 (centres unmarked) [Compound 5b, (E)-2-(2-Fluoro-[1,1′-biphenyl]-4-yl)-N′-(1-(4-nitrophenyl)ethylidene)propanehydrazide]"
3,187 °C,"COc1ccc2c(c1)CCC/C2=N\NC(=O)C(C)c1ccc(-c2ccccc2)c(F)c1 (centres unmarked) [Compound 5c, (E)-2-(2-Fluoro-[1,1′-biphenyl]-4-yl)-N′-(6-methoxy-3,4-dihydronaphthalen-1(2H) -ylidene)propanehydrazide]"
4,181 °C,"C/C(=N\NC(=O)C(C)c1ccc(-c2ccccc2)c(F)c1)c1ccccc1 (centres unmarked) [Compound 5f, (E)-2-(2-Fluoro-[1,1′-biphenyl]-4-yl)-N′-(1-phenylethylidene)propanehydrazide]"
5,179 °C,"CC/C(=N\NC(=O)C(C)c1ccc(-c2ccccc2)c(F)c1)c1ccccc1 (centres unmarked) [Compound 5g, (E)-2-(2-Fluoro-[1,1′-biphenyl]-4-yl)-N′-(1-phenylpropylidene)propanehydrazide]"
6,177 °C,"CC(C)/C(=N\NC(=O)C(C)c1ccc(-c2ccccc2)c(F)c1)c1ccccc1 (centres unmarked) [Compound 5h, (E)-2-(2-Fluoro-[1,1′-biphenyl]-4-yl)-N′-(2-methyl-1-phenylpropylidene)propanehydrazide]"
7,165 °C,"CCCC/C(=N\NC(=O)C(C)c1ccc(-c2ccccc2)c(F)c1)c1ccccc1 (centres unmarked) [Compound 5i, (E)-2-(2-Fluoro-[1,1′-biphenyl]-4-yl)-N′-(1-phenylpentylidene)propanehydrazide]"
8,160 °C,"C/C(=N\NC(=O)C(C)c1ccc(-c2ccccc2)c(F)c1)C1CC1 (centres unmarked) [Compound 5j, (E)-N′-(1-Cyclopropylethylidene)-2-(2-fluoro-[1,1′-biphenyl]-4-yl)propanehydrazide]"
9,183 °C,"CCC/C(=N\NC(=O)C(C)c1ccc(-c2ccccc2)c(F)c1)c1ccccc1 (centres unmarked) [Compound 5k, (E)-2-(2-Fluoro-[1,1′-biphenyl]-4-yl)-N′-(1-phenylbutylidene)propanehydrazide]"
10,177 °C,"CC(C(=O)NN=C1CCCCC1)c1ccc(-c2ccccc2)c(F)c1 (centres unmarked) [Compound 5l, N′-Cyclohexylidene-2-(2-fluoro-[1,1′-biphenyl]-4-yl)propanehydrazide]"
11,198 °C,"COc1ccccc1/C(C)=N/NC(=O)C(C)c1ccc(-c2ccccc2)c(F)c1 (centres unmarked) [Compound 5m, (E)-2-(2-Fluoro-[1,1′-biphenyl]-4-yl)-N′-(1-(2-methoxyphenyl)ethylidene)propanehydrazide]"
12,192 °C,"COc1ccc(/C(C)=N/NC(=O)C(C)c2ccc(-c3ccccc3)c(F)c2)cc1 (centres unmarked) [Compound 5n, (E)-2-(2-Fluoro-[1,1′-biphenyl]-4-yl)-N′-(1-(4-methoxyphenyl)ethylidene)propanehydrazide]"
